# Test results published in article PMC9486809, “Exploring the Surface of the Ectodomain of the PD-L1 Immune Checkpoint with Small-Molecule Fragments” (ACS Chemical Biology, 2022).
# Biological target: T1, PD-L1 (Homo sapiens, UniProt Q9NZQ7)
# Assay: biochemical
# Parameters: gene CD274
# Details: read-out: DSF (°C)
# Description: Fragments were screened in both techniques as singletons. […] The fragments were tested at a final concentration of 0.1 mM. […] DSF hits were defined as fragments, resulting in an increase or decrease in melting point of PD-L1 by at least 0.5 °C. […] Having the library in hand, we carried out screening using differential scanning fluorimetry and 1D NMR techniques. Previously, the fragment-based approach with a large library of compounds (>13 000) was tested on the PD-L1 V1 domain.[33] […] Therefore, instead of using a large fragment library, we assembled a focused library of fragments containing the biphenyl core extracted from known inhibitors. The obtained fragments were decorated with different substituents to test how these variations will affect the binding of biphenyl. The expression and purification protocol relate to work on PD-L1-short published earlier by us. Briefly, Escherichia coli strain BL21 (DE3) was transformed with a pET-21b plasmid carrying the PD-L1-long gene (amino acids 18–239). The bacteria were cultured in LB at 37 °C until OD600 nm of 0.8 when the recombinant protein production was induced with 1 mM IPTG. The protein expression was carried out at 37 °C for 5 h. Next, bacteria cells were harvested, and the pellet was frozen at −20 °C. […]
# T1 sequence (Q9NZQ7 18-239): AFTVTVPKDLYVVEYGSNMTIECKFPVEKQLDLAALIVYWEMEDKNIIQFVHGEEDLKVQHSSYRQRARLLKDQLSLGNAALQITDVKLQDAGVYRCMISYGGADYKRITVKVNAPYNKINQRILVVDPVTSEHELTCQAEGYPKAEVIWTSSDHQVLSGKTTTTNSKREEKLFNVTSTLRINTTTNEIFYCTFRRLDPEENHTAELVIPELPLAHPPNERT
row,SMILES,ΔTm at 100 µM [°C]
1,Cc1c(COc2cc(OCc3cccc(C#N)c3)c(CN3C[C@H](O)C[C@@H]3C(=O)O)cc2Cl)cccc1-c1ccc2c(c1)OCCO2 [BMS-1166],2.7

# Biological target: T1, PD-L1
# Assay: 1H NMR; KD stated (data not shown)
# Format: binding
# Parameters: gene CD274; ectodomain, PD-L1-long (amino acids 18–239)
# Details: cited from earlier work
row,SMILES,Kd [mM]
1,CN1CCOc2cc(C#N)ccc21 [STD4],2.21

# Biological target: T1, PD-L1
# Assay: biochemical
# Parameters: gene CD274; ectodomain, PD-L1-long (amino acids 18–239); Differential scanning fluorimetry, melting temperature shift of PD-L1 ectodomain (PD-L1-long)
# Details: read-out: DSF (°C)
# Remark: another data set of the same source
# Description: Fragments were screened in both techniques as singletons. […] The fragments were tested at a final concentration of 0.1 mM. […] DSF hits were defined as fragments, resulting in an increase or decrease in melting point of PD-L1 by at least 0.5 °C. […] Having the library in hand, we carried out screening using differential scanning fluorimetry and 1D NMR techniques. Previously, the fragment-based approach with a large library of compounds (>13 000) was tested on the PD-L1 V1 domain.[33] […] Therefore, instead of using a large fragment library, we assembled a focused library of fragments containing the biphenyl core extracted from known inhibitors. The obtained fragments were decorated with different substituents to test how these variations will affect the binding of biphenyl. The expression and purification protocol relate to work on PD-L1-short published earlier by us. Briefly, Escherichia coli strain BL21 (DE3) was transformed with a pET-21b plasmid carrying the PD-L1-long gene (amino acids 18–239). The bacteria were cultured in LB at 37 °C until OD600 nm of 0.8 when the recombinant protein production was induced with 1 mM IPTG. The protein expression was carried out at 37 °C for 5 h. Next, bacteria cells were harvested, and the pellet was frozen at −20 °C. […] Inclusion bodies were collected by centrifugation, suspended in 1× PBS, and then sonicated to finally collect them again by centrifugation. Then, the inclusion bodies were washed twice with 50 mM Tris-HCl, pH 8.0, containing 200 mM NaCl, 10 mM EDTA, 10 mM 2- mercaptoethanol, and 0.5% Triton X-100, followed by a single wash with the same buffer without Triton X-100.
row,SMILES,ΔTm at 100 µM [°C]
1,COC(=O)c1cncc(-c2cccc(CO)c2C)c1 [TAH2],0.1
2,Cc1c(CO)cccc1-c1cccc(CO)c1Br [TAH3],0.3
3,OCc1cccc(-c2ccc3c(c2)OCCO3)c1Cl [TAH4],0.5
4,OCc1cccc(-c2cccnc2)c1Cl [TAH5],0.3
5,Nc1c(CO)cccc1-c1ccc2c(c1)OCCO2 [TAH6],0.3
6,Nc1c(C(=O)O)cccc1-c1ccccc1 [TAH7],0.3
7,COC(=O)c1cccc(-c2ccccc2)c1N [TAH8],0.3
8,COC(=O)c1cccc(-c2ccccc2)c1Br [TAH9],0.5
9,Oc1cccc(-c2cccc(Br)c2)c1 [TAH11],0.1
10,COc1cccc(-c2cccc(O)c2)c1 [TAH14],0.5
11,Cc1c(N)cccc1-c1ccc2c(c1)OCCO2 [TAH16],0.5
12,Cc1c(-c2ccc3c(c2)OCCO3)cccc1N1CCCCC1=O [TAH17],0.3
13,Cc1c(N)cccc1-c1ccccn1 [TAH28],0.3
14,Cc1c(N)cccc1-c1ccc(C#N)cc1 [TAH29],0.1
15,O=C1CCc2cc(-c3ccc4c(c3)OCCO4)ccc21 [TAH30],0.1
16,Cc1c(-c2cccc([N+](=O)[O-])c2C)cccc1[N+](=O)[O-] [TAH34],0.3
17,Cc1c(N)cccc1-c1cccc(N)c1C [TAH35],-1.2

row,SMILES,ΔTm at 100 µM [°C]
1,Cc1c(C#N)cccc1-c1cccc(C#N)c1C [TAH37],0.1
2,Cc1c(/C=C/C#N)cccc1-c1ccc2c(c1)OCCO2 [TAH38],0.9
3,Cc1c(N)cccc1-c1ccccc1 [TAH39],0.3
4,O=C(O)c1cccc(-c2ccccc2)c1Br [TAH40],0.3
5,Oc1cccc(-c2cccc(F)c2)c1 [TAH41],1.1
6,Nc1c(Br)cccc1-c1ccc(CO)cc1 [TAH44],0.5
7,Nc1c(-c2ccc3c(c2)OCCO3)cccc1-c1ccc2c(c1)OCCO2 [TAH46],0.5
8,Cc1c(-c2ccc(CO)cc2)cccc1-c1ccc(CO)cc1 [TAH50],0.3
9,Cc1ccc(-c2ccc3c(c2)OCCO3)c(N)c1 [TAH53],0.7
10,Cc1cccc(N)c1-c1ccc2c(c1)OCCO2 [TAH55],0.3
11,CNc1cccc(-c2ccc3c(c2)OCCO3)c1 [TAH56],0.1
12,Nc1c(CO)cccc1-c1ccncc1 [TAH57],0.1
13,COc1ccc(-c2cccc(CO)c2N)cc1 [TAH58],0.1
14,Nc1c(Br)cccc1-c1ccc2c(c1)OCCO2 [TAH59],0.3
15,Cc1cc(Br)cc(-c2ccc3c(c2)OCCO3)c1 [TAH60],0.3
16,Cc1c(CO)cccc1-c1cccc2c1OCCN2C [TAH61],-1.1

# Biological target: T1, PD-L1
# Assay: 1H-15N HMQC NMR, w-AIDA-NMR KD, 1H NMR
# Format: binding
# Parameters: gene CD274; ectodomain, PD-L1-long (amino acids 18–239); PD-L1-short in 1H-15N HMQC
# Details: not given
row,SMILES,Kd [mM]
1,OCc1cccc(-c2ccc3c(c2)OCCO3)c1Cl [TAH4],~40

# Biological target: T1, PD-L1
# Assay: w-AIDA-NMR KD, 1H-15N HMQC NMR, 1H NMR, DSF
# Format: binding
# Parameters: gene CD274; ectodomain, PD-L1-long (amino acids 18–239); PD-L1-short in 1H-15N HMQC
# Details: not given
row,SMILES,Kd [mM]
1,Cc1c(N)cccc1-c1cccc(N)c1C [TAH35],~20
